# “And” between values parts separate entries of the source, which are not always exact repeats. Identical values can stand only once.
# Columns and labels:
# [1] = test system: vomeronasal sensory neurons (VSNs); assay: VNO whole-mount en face confocal Ca2+ imaging of VSN dendritic knobs (Fig. 4, 5); type: cell-based, mouse; design: key to Ca2+ response of f-MKKFRW-responsive VSN knobs / Fpeak: normalised to knob resting fluorescence F0 before stimulation
# Source text: Mice (6–20 week old, either sex) were euthanized by CO2 inhalation according to institutional guidelines. After decapitation, the skin was removed from the skull, the mandible was cut off and the cranium was opened by a sagittal cut, 1–2-mm right-lateral in parallel to the midline. The palate and the right incisor were removed and the hemisected skull was mounted in low-melting agarose (4%). The bony capsule of the VNO was opened with fine forceps and the nonsensory epithelium was stripped off. Tissue and cell debris were gently washed off, and the en face preparation was superfused with physiological S1 solution (120 mM NaCl, 25 mM NaHCO3, 5 mM KCl, 1 mM MgSO4, 1 mM CaCl2, 10 mM glucose, 5 mM BES, pH 7.3) saturated with carbogen (95% O2, 5% CO2).
# Loading of the VNE with Rhod-2/AM (5–15 µM, 1 h) was performed in S1 solution under carbogen atmosphere at RT. Images were taken with an upright confocal laser scanning microscope (Leica TCS SP5 II, 20x water immersion objective HCX APO L20x/1.0w) equipped with Ar and He/Ne lasers. GFP was excited at 488 nm, Venus at 514 nm and Rhod-2 at 543 nm. Emission was measured at 490–520 nm (GFP), 520–600 nm (Venus) and 560–680 nm (Rhod-2). To minimise interference between Venus and Rhod-2 fluorescence, images were taken sequentially (sample interval per image, 3–4 s). Peptide stimuli were applied to the VNE surface with a local perfusion system which, when positioned close to the anterior end of the VNO, produced a continuous solution stream from rostral to caudal along the VNO axis. Data analysis was performed with the open source software ImageJ (NIH). Ca^2+ responses of individual dendritic knobs were normalised to the knob resting fluorescence level obtained before stimulation (ratio Fx/F0, Fx = actual fluorescence; F0 = mean fluorescence of 3–5 images before ligand application). Mapping was performed by superimposing Ca^2+ peak images onto images showing intrinsic fluorescence for specific markers.
# Predator urine mix was composed of urine from mountain lion, coyote, bobcat, fox and marten (at equal volume ratios), purchased from Predatorpee (USA) and Kieferle (Germany). The fMet peptides were as described above. Stimuli were applied in S2 solution (140 mM NaCl, 5 mM KCl, 10 mM HEPES, 1 mM CaCl2, 1 mM MgCl2, 10 mM glucose, pH 7.3 with NaOH).
# [2] = target: T1, mouse Fpr3 (Fpr-rs1) (Mus musculus, UniProt O08790); assay: Heterologous expression / high-throughput Ca2+ imaging agonist screen and sequence selectivity of Fpr3 (Fig. 1a, 2c-e, 2g, 2i); type: cell-based; settings: mean of n = 3 experiments in triplicate (n = 5 for f-MKKFRW), Fpr3 + Gα16 HEK293T, Fluo-4/AM, FLIPR, buffer C1 pH 7.2, mock 0.059-0.060
# T1 construct: expressed in transfected cells; host or cells: HEK293T (DSMZ # ACC-635), transient transfection with jetPEI
# T1 sequence (O08790 1-351): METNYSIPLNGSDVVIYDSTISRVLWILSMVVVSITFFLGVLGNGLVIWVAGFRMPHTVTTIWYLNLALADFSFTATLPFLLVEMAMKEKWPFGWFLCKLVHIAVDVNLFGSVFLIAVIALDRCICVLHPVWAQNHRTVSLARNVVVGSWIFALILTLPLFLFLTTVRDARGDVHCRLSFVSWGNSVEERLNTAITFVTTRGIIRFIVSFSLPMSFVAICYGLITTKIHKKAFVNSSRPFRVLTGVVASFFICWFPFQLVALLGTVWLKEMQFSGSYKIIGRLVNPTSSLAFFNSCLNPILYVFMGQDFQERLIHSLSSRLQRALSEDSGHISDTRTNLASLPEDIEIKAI
# Protocol: An Fpr3 gene subcloned from genomic DNA of C57BL/6J mice into pcDNA3.1 (Invitrogen) was used in heterologous experiments[21],[80]. HEK293T (DSMZ # ACC-635) cells were seeded at 20–30% confluence on poly-D-lysine-coated (10 µg/ml in PBS) black 96-well µCLEAR-Plates (Greiner Bio-One). Cells were transfected 24 h later using jetPEI™ (Polyplus-transfection SA) according to the manufacturer’s protocol for 96-well transfections. For Ca^2+ imaging experiments, 0.125 µg of DNA plasmid encoding Fpr3 were cotransfected with equal amounts of a plasmid encoding Gα16, a promiscuous G protein α-subunit. Ca^2+ signals to agonist stimulation were recorded 48 h post transfection using the Ca^2+ indicator dye Fluo-4/AM (Molecular Probes) and a fluorescence imaging plate reader (FLIPR) system (Molecular Devices). Cotransfection of a plasmid encoding Gα16 with an empty vector used to subclone Fpr3 gave no agonist-evoked Ca^2+ responses.
# We used custom-made peptides with a length of 6–21 amino acids to screen for agonists. Sequences of fMet peptides were designed according to motifs present at the N-termini of 15,125 specific bacterial proteins as annotated in UniProt. Peptides were chemically synthesised, purified, and verified by mass spectroscopy (MALDI-TOF) by commercial suppliers. Purity of all peptides was >95%. Source, sequence and purity of each peptide are listed in Supplementary Data 1. Lyophilised peptides were routinely dissolved in the Ca^2+ imaging assay buffer C1 (130 mM NaCl, 10 mM HEPES, 5 mM KCl, 2 mM CaCl2, 5 mM glucose, pH 7.2) as 0.2–1 mM stock solutions and kept in small aliquots at −20 °C until use. […] The sequences of these peptides exist in proteins from the following bacterial strains[21]: Psychromonas ingrahamii that belongs to a marine ice water microbial community, Desulfotomaculum reducens that is found in deep freshwater lakes, and Pseudomonas grimontii, a plant pathogen. As mice are unlikely to encounter these strains in their natural habitat, these findings are probably not of biological relevance.
# [3] = test system: male mice; assay: Behavioural avoidance test, FEU vs. FEU supplemented with peptide (Fig. 8, Supplementary Fig. 4); type: in vivo, mouse; settings: Fig. 8c, B6 mice
# Protocol: These assays were adapted from behavioural procedures described previously[14],[60]. We tested avoidance by giving adult male mice (8–14 week old) of various genotypes a choice to freely investigate two types of chemical stimuli: FEU vs. FEU supplemented with a peptide. Mice were sexually naïve and not exposed to the test stimuli prior to the testing day. Mice were habituated for three days (40 min each day) to clean filter papers (2.5 cm diameter), each deposited in a sterile plastic culture dish and placed in opposite corners of the test cage (30 × 12 cm). After the third habituation period, the test subject was transferred into a new cage containing fresh filter papers/dishes with either of the two test stimuli. One filter paper was impregnated with 45 µl of fresh urine pooled from two sexually naïve female B6 mice (8–16 weeks old) in oestrus (FEU, female oestrous urine) and 5 µl physiological solution containing (in mM): NaCl, 130; KCl, 5; Na-Hepes, 10; CaCl2, 2; glucose, 10; pH = 7.4. For testing the effects of specific peptides, the second filter paper was impregnated with FEU supplemented with a given peptide (100 or 50 µM final concentration, dissolved in physiological solution). Direct physical contact was allowed. Behaviour was recorded for 10 min from the top of the cage. Mice were exposed only once to a given peptide solution, and were exposed to only one peptide stimulus per day. Stimuli were presented in randomised order. […] This investigative behaviour was quantified as the time spent in close contact with each filter paper, scored manually by an observer blind to the experimental conditions using Behavioural Observation Research Interactive Software (BORIS)[85]. Contact time was measured as the time during which the nose crossed the border of a petri dish containing impregnated filter paper. An avoidance index was calculated as (TP — aTU)/(aTP + aTU), with TP as the time an individual mouse investigated a FEU-peptide mixture, aTP as the average time of all tested mice investigating this stimulus and aTU as the average time of all mice investigating FEU without added peptide. Negative values represent avoidance and positive values represent attraction. For analysing investigation of sick conspecifics, B6 mice were injected either with LPS or PBS as described above. In total, 4 h post injection, these mice were anaesthetised with 165 mg/kg ketamine (Pharmacia GmbH, Berlin, Germany) and 11 mg/kg xylazine (Bayer Health Care, Leverkusen, Germany) and then used in behavioural tests.
Substance,"Ca2+ response, mean ([2]; 3 µM)","Ca2+ response, mean ([2]; 30 µM)",other results
f-MKKFRWVVL [MgrB nonapeptide],,,"Fpeak ([1]; Fig. 4h, mean of individual knobs, n = 103 f-MKKFRW, 21 f-MKKFRWVVL, 68 MKKFRW, 26 f-MGFFIS, 63 PUM): 0.64; Ca2+ responses in VSNs, in words ([1]; VNE of adult B6 mice, f-MKKFRW 1 µM): VSNs that recognised f-MKKFRW responded also; Ca2+ response of f-MKKFRW-responsive VSN knobs ([1]; adult B6 mice, mean ± s.d., N = 103 (f-MKKFRW), 21 (f-MKKFRWVVL), 68 (MKKFRW), 26 (f-MGFFIS), 63 (PUM), Fig. 4h): 0.64 ± 0.45"
f-MEQQNK [synthesized fMet peptide],0.047 ∆F/F,0.050 ∆F/F,"Preference Index ([3]; individual values): -0.06064 and -0.05774 and -0.1328 and -0.09632 and 0.7296 and -0.0445 and 0.1064 and -0.1977 and 0.2779 and -0.1553; Preference Index ([3]; mean, n = 11 f-MKKFRW, 11 MKKFRW, 10 f-MGFFIS, 10 f-MEQQNK, FEU control -0.002): 0.0369"
f-MKKWRW [synthesized fMet peptide],0.056 ∆F/F,0.063 ∆F/F,
f-MVKIIF [synthesized fMet peptide],0.045 ∆F/F,0.054 ∆F/F,
f-MVMKFK [synthesized fMet peptide],0.053 ∆F/F,0.050 ∆F/F,
f-MMKMEG [synthesized fMet peptide],0.048 ∆F/F,0.040 ∆F/F,
f-MKKTLSLKN [synthesized fMet peptide],0.068 ∆F/F,0.058 ∆F/F,
f-MKKFNI [synthesized fMet peptide],0.053 ∆F/F,0.044 ∆F/F,
f-MKKISKFLP [synthesized fMet peptide],0.055 ∆F/F,0.072 ∆F/F,
f-MEFVAK [synthesized fMet peptide],0.051 ∆F/F,0.076 ∆F/F,
f-MLFKYS [synthesized fMet peptide],0.054 ∆F/F,0.048 ∆F/F,
f-MTNKIS [synthesized fMet peptide],0.052 ∆F/F,0.049 ∆F/F,
"f-MNKKLL [f-MNKLL, synthesized fMet peptide]",0.038 ∆F/F,0.039 ∆F/F,
f-MPSTFF [synthesized fMet peptide],0.063 ∆F/F,0.065 ∆F/F,
f-MTNMRK [synthesized fMet peptide],0.089 ∆F/F,0.060 ∆F/F,

# Source: publication PMC6814738, “Bacterial MgrB peptide activates chemoreceptor Fpr3 in mouse accessory olfactory system and drives avoidance behaviour” (Nature Communications, 2019)
